# Activity calls are given as the source filed them. No cut-off for these calls is given here.
# What was measured:
# [1] = Binding affinity to GGTase-1 F53Y/Y126T mutant assessed as prenylation of dansyl-labeled GCVLL by fluorescence based assay
# COS-7 [2] = assay: Binding affinity to GGTase-1 F53Y/Y126T mutant in african green monkey COS7 lysate assessed as protein prenylation by two-dimensional SDS-PAGE method
# [3] = system: Protein farnesyltransferase subunit beta (Homo sapiens), P49356 [W102T,Y154T]; assay: Binding affinity to FTase W102T/Y154T mutant assessed as prenylation of Ki-Ras by Western blot analysis
# Sequence of Protein farnesyltransferase subunit beta (Homo sapiens), P49356 [W102T,Y154T] (P49356 whole entry W102T/Y154T): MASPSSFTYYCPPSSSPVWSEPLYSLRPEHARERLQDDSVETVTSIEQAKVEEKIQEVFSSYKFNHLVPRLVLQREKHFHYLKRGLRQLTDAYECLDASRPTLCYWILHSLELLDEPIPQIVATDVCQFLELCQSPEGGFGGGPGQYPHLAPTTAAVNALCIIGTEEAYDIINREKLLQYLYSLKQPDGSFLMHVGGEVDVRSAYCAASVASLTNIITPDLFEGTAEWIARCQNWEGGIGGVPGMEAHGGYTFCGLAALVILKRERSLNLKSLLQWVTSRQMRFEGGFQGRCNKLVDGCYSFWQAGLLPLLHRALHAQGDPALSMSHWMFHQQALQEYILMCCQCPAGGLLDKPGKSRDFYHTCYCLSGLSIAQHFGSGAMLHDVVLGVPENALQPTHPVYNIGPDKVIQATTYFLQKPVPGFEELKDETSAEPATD
# COS-7 [4] = assay: Binding affinity to wild type FTase in african green monkey COS7 lysate assessed as prenylation of CFP-CAAX by Western blot method
# [5] = system: Protein farnesyltransferase subunit beta (Homo sapiens), P49356 [W102T]; assay: Binding affinity to FTase W102T mutant assessed as prenylation of CFP-CAAX by Western blot analysis
# Sequence of Protein farnesyltransferase subunit beta (Homo sapiens), P49356 [W102T] (P49356 whole entry W102T): as the sequence (P49356 whole entry W102T/Y154T) above, with T154Y counted along it
# [6] = system: Geranylgeranyl transferase type-1 subunit beta (Homo sapiens), P53609 [Y126T]; assay: Binding affinity to GGTase-1 Y126T mutant assessed as prenylation of RhoA GTPase by Western blot method
# Sequence of Geranylgeranyl transferase type-1 subunit beta (Homo sapiens), P53609 [Y126T] (P53609 whole entry Y126T): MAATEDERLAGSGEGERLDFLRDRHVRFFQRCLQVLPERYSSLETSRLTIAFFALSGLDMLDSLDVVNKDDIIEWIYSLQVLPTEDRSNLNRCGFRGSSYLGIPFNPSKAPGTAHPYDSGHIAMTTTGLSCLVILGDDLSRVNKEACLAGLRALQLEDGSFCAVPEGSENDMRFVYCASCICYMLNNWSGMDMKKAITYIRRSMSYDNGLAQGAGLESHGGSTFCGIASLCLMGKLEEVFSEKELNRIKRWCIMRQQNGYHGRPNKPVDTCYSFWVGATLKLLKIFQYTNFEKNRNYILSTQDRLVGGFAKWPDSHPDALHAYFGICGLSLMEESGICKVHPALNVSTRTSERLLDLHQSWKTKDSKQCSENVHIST
# [7] = system: Protein farnesyltransferase subunit beta (Homo sapiens), P49356 [W102T]; assay: Binding affinity to FTase W102T mutant assessed as prenylation of Ki-Ras by Western blot analysis
# [8] = system: Protein farnesyltransferase subunit beta (Homo sapiens), P49356 [W102T]; assay: Binding affinity to FTase W102T mutant assessed as prenylation of Ki-Ras by ESI-MS analysis
# [9] = system: Protein farnesyltransferase subunit beta (Homo sapiens), P49356 [W102T,Y365F]; assay: Binding affinity to FTase W102T/Y365F mutant assessed as prenylation of CFP-CAAX by Western blot analysis
# Sequence of Protein farnesyltransferase subunit beta (Homo sapiens), P49356 [W102T,Y365F] (P49356 whole entry W102T/Y365F): as the sequence (P49356 whole entry W102T/Y154T) above, with T154Y, Y365F counted along it
# [10] = system: Geranylgeranyl transferase type-1 subunit beta (Homo sapiens), P53609 [F52Y,Y126T]; assay: Binding affinity to GGTase-1 F52Y/Y126T mutant assessed as prenylation of RhoA GTPase by Western blot method
# Sequence of Geranylgeranyl transferase type-1 subunit beta (Homo sapiens), P53609 [F52Y,Y126T] (P53609 whole entry F52Y/Y126T): as the sequence (P53609 whole entry Y126T) above, with F52Y counted along it
# [11] = Binding affinity to RabGGTase by NBD fluorescence assay
# [12] = Binding affinity to FTase by X-ray crystallography
# COS-7 [13] = assay: Binding affinity to GGTase-1 F53Y/Y126T mutant in african green monkey COS7 lysate assessed as prenylation of RhoA by Western blot method
# [14] = system: Protein farnesyltransferase subunit beta (Homo sapiens), P49356 [W102T,Y154T]; assay: Binding affinity to FTase W102T/Y154T mutant assessed as prenylation of CFP-CAAX by ESI-MS analysis
# [15] = system: Protein farnesyltransferase subunit beta (Homo sapiens), P49356 [W102T,Y154T,Y205T]; assay: Binding affinity to FTase W102T/Y154T/Y205T mutant in african green monkey COS7 lysate assessed as prenylation of CFP-CAAX by Western blot method; settings: COS-7
# Sequence of Protein farnesyltransferase subunit beta (Homo sapiens), P49356 [W102T,Y154T,Y205T] (P49356 whole entry W102T/Y154T/Y205T): as the sequence (P49356 whole entry W102T/Y154T) above, with Y205T counted along it
# [16] = system: Protein farnesyltransferase subunit beta (Homo sapiens), P49356 [W102T,Y154T]; assay: Binding affinity to FTase W102T/Y154T mutant assessed as prenylation of Ki-Ras by ESI-MS analysis
# [17] = system: Protein farnesyltransferase subunit beta (Homo sapiens), P49356 [Y154T]; assay: Binding affinity to FTase Y154T mutant assessed as prenylation of Ki-Ras by ESI-MS analysis
# Sequence of Protein farnesyltransferase subunit beta (Homo sapiens), P49356 [Y154T] (P49356 whole entry Y154T): as the sequence (P49356 whole entry W102T/Y154T) above, with T102W counted along it
# [18] = Binding affinity to GGTase-1 F53Y/Y126T mutant assessed as prenylation of RhoA GTPase by Western blot method
# [19] = system: Geranylgeranyl transferase type-1 subunit beta (Homo sapiens), P53609 [F52Y,F53Y,Y126T]; assay: Binding affinity to GGTase-1 F52Y/F53Y/Y126T mutant in african green monkey COS7 lysate assessed as prenylation of RhoA by Western blot method; settings: COS-7
# Sequence of Geranylgeranyl transferase type-1 subunit beta (Homo sapiens), P53609 [F52Y,F53Y,Y126T] (P53609 whole entry F52Y/F53Y/Y126T): as the sequence (P53609 whole entry Y126T) above, with F52Y, F53Y counted along it
# [20] = system: Protein farnesyltransferase subunit beta (Homo sapiens), P49356 [W102T]; assay: Binding affinity to FTase W102T mutant assessed as prenylation of CFP-CAAX by ESI-MS analysis
# [21] = system: Protein farnesyltransferase subunit beta (Homo sapiens), P49356 [W102T,Y365F]; assay: Binding affinity to FTase W102T/Y365F mutant assessed as prenylation of CFP-CAAX by ESI-MS analysis
# [22] = system: Protein farnesyltransferase subunit beta (Homo sapiens), P49356 [W102T,Y365F]; assay: Binding affinity to FTase W102T/Y365F mutant assessed as prenylation of Ki-Ras by Western blot analysis
# [23] = system: Protein farnesyltransferase subunit beta (Homo sapiens), P49356 [Y154T]; assay: Binding affinity to FTase Y154T mutant assessed as prenylation of CFP-CAAX by ESI-MS analysis
# [24] = Binding affinity to GGTase-1 assessed as prenylation of RhoA by SDS PAGE
# [25] = system: Protein farnesyltransferase subunit beta (Homo sapiens), P49356 [W102T,Y154T,Y205T]; assay: Binding affinity at FTase W102T/Y154T/Y205T mutant in african green monkey COS7 lysate assessed as protein prenylation by two-dimensional SDS-PAGE method; settings: COS-7
# [26] = Binding affinity to RabGGTase assessed as prenylation of Rab7 by SDS PAGE
# COS-7 [27] = assay: Binding affinity to RabGGTase in african green monkey COS7 lysate assessed as prenylation of Rab by two-dimensional SDS-PAGE method
# [28] = Binding affinity to FTase assessed as prenylation of Ki-Ras by SDS PAGE
# [29] = system: Protein farnesyltransferase subunit beta (Homo sapiens), P49356 [Y154T]; assay: Binding affinity to FTase Y154T mutant assessed as prenylation of Ki-Ras by Western blot analysis
# [30] = Binding affinity to GGTase-1 by NBD fluorescence assay
# [31] = system: Protein farnesyltransferase subunit beta (Homo sapiens), P49356 [Y154T]; assay: Binding affinity to FTase Y154T mutant assessed as prenylation of CFP-CAAX by Western blot analysis
# [32] = system: Protein farnesyltransferase subunit beta (Homo sapiens), P49356 [W102T,Y154T]; assay: Binding affinity to FTase W102T/Y154T mutant assessed as prenylation of CFP-CAAX by Western blot analysis
# [33] = Binding affinity to GGTase-1 F53Y/Y126T mutant assessed as prenylation of dansyl-labeled GCVLS by fluorescence based assay
# [34] = system: Protein farnesyltransferase subunit beta (Homo sapiens), P49356 [W102T,Y365F]; assay: Binding affinity to FTase W102T/Y365F mutant assessed as prenylation of Ki-Ras by ESI-MS analysis
# [35] = Binding affinity to RabGGTase assessed as prenylation of Rab27 by SDS PAGE
# [36] = system: Protein farnesyltransferase subunit beta (Homo sapiens), P49356 [W102T,Y154T]; assay: Binding affinity to FTase W102T/Y154T mutant in african green monkey COS7 lysate assessed as prenylation of CFP-CAAX by Western blot method; settings: COS-7
smiles,measurement,setting,value
C/C(=C\COP(=O)(O)OP(=O)(O)O)CC/C=C(\C)CNC(=O)CCCC[C@@H]1SC[C@@H]2NC(=O)N[C@@H]21 [biotin-geranylpyrophosphate],Activity,[1],inactive
same,Activity,COS-7 [2],Active
same,Activity,[3],Active
same,Activity,COS-7 [4],Active
same,Activity,[5],inactive
same,Activity,[6],Active
same,Activity,[7],inactive
same,Activity,[8],inactive
same,Activity,[9],inactive
same,Activity,[10],inactive
same,Kd,[11],2.2 nM
same,Activity,[12],Active
same,Activity,COS-7 [13],Active
same,Activity,[14],Active
same,Activity,[15],Active
same,Activity,[16],Active
same,Activity,[17],inactive
same,Activity,[18],Active
same,Activity,[19],Active
same,Activity,[20],inactive
same,Activity,[21],inactive
same,Activity,[22],inactive
same,Activity,[23],inactive
same,Activity,[24],inactive
same,Activity,[25],Active
same,Activity,[26],Active
same,Activity,COS-7 [27],Active
same,Activity,[28],inactive
same,Activity,[29],inactive
same,Kd,[30],45 nM
same,Activity,[31],inactive
same,Activity,[32],Active
same,Activity,[33],inactive
same,Activity,[34],inactive
same,Activity,[35],Active
same,Activity,[36],Active
